{"source": "patent US6187906A", "about": "“Methods to improve neural outcome” (Aukland Uniservices Limited, priority 1998, dated 2001)", "key": {"[1]": {"tested_on": "TH positive neurons of the SNc", "assay": "6-OHDA lesion of medial forebrain bundle, TH neuron number and staining density in SNc (Experiment 6)", "assay_type": "in vivo", "description": "A paired experimental design was used and the experimenter was blinded to the treatment groups. Eighteen male Wistar rats (50-60 days old, 280-310 g) were used for this study. 6-hydroxy dopamine (6-OHDA) was prepared as 8 μg in a base of 2 μl 0.9% saline containing 1% ascorbic acid. It was administered into the right medial forebrain bundle (MFB) using coordinates of AP +4.7 mm, R 1.6 mm, V -8 mm under anaesthesia of 3% halothane, 6-OHDA was injected into the right MFB using a Hamilton syringe (100 μl with a 30G needle) controlled by a microdialysis infusion pump at an infusion rate of 0.2 μl/minute. The infusion needle was then slowly withdrawn 5 minutes after infusion. The surgery procedures for the intracerebroventricular administration have been described by Guan et al (1993), Journal of Cerebral Blood Flow and Metab, 13, 609-616. Briefly, a guide cannula (21G, 6 mm) was fixed on the top of the dura with coordinates of AP +7.5 mm, R 1.5 mm immediately after the injection of 6-OHDA. Either GPE (3 μg/15 μl) or its vehicle were infused into the right lateral ventricle 2 hours later at an infusion rate of 2 μl/minute (Guan et al (1993)). Rats were then housed in a holding room with food and water ad libitum for the next 2 weeks.\nThe rats were then deeply anaesthetized with an overdose of pentobarbital and transcardially perfused with normal saline followed by 10% buffered formalin. The brains were removed from the skull and kept in the same fixative for the next 48 hours. A standard paraffin tissue preparation was used to process the tissue so that it could be used for immunohistochemistry. […]\nThe number of TH positive neurons on both sides of the SNc were counted using light microscopic examination (20×magnification) at three representative levels (AP +4.2, +3.8 mm and […]) (Paxinos, et al (1982) New York: Academic Press).\nThe average density from the background was also measured. […] The difference in average density between the background and TH immunostaining was calculated and used for data analysis. […]"}, "substantia nigra neurons": {"tested_on": "substantia nigra neurons", "assay": "Medial forebrain bundle transection, TH immunopositive cell survival (Experiment 7)", "assay_type": "in vivo, Wistar rats", "conditions": "lesioned side; daily supranigral GPE 0.3 μg for two weeks", "description": "Adult male Wistar rats (200-220 g) were anaesthetized with 75 mg/kg Nembutal and positioned in a stereotaxic apparatus. Unilateral transection of the medial forebrain bundle which contains the ascending nigral dopaminergic projection fibers was made 1.3 mm rostral to the rostral tip of the substantia nigra using a retractable wire knife (David Kopf Instruments, Tujunga, Calif.). The knife was lowered into the brain using the following coordinates from the atlas of Paxinos and Watson (1996), Sydney: Academic Press: 3.3 mm posterior to Bregma, 2.4 mm lateral from midline, and 8.5 mm ventral from skull, the blade was extended 2.0 mm toward midline, raised 2.5 mm dorsally, retracted and extended again, and then returned 2.5 mm ventrally. The wire blade was retracted and the knife withdrawn. Next, a 22-gauge metal guide cannula was permanently fixed into place supranigrally at 5.0 mm posterior to Bregma, 2.0 mm lateral to midline, and 6.8 mm ventral to skull. A second set of intact unlesioned rats were cannulated supranigrally at the same coordinates. […]\nImmunopositive cells were counted in the central substantia nigra. […] To reveal percent survival, percent changes were calculated by dividing the ipsilateral value by contralateral value."}}}
{"smiles": "NCC(=O)N1CCC[C@H]1C(=O)N[C@@H](CCC(=O)O)C(=O)O", "note": "[GPE, gly-pro-glu]", "values": [{"measurement": "TH immunoreactivity (density of TH immunostaining, R/L)", "setting": "[1]; caudal levels, 3 μg GPE, vehicle 16±11.2, mean ±SEM", "result": "99.6±27", "unit": "%"}, {"measurement": "neurons remaining in the ipsilateral SNc", "setting": "[1]; caudal levels, GPE 3 μg, vehicle 16.3±11.5", "result": "over 60.9±13.0%"}, {"measurement": "TH immunoreactivity (density of TH immunostaining)", "setting": "[1]; lesioned (right) side, 3 μg GPE icv 2 hours after 6-OHDA, 2 weeks", "result": "restored"}, {"measurement": "percent cell survival of TH immunopositive neurons", "setting": "substantia nigra neurons", "result": "increased"}]}
